Measured values: the OPERA property sets (Mansouri et al. 2018)

Structure (SMILES) | melting point [°C] | ready biodegradability | log10 Koa | boiling point [°C] | log10 biodegradation half-life (days) | log10 vapour pressure (mmHg) | log10 Henry constant (atm·m³/mol) | log10 Koc (L/kg)
C[C@@H]1O[C@@H](O[C@@H]2C=C3CC[C@@H]4[C@H](CC[C@]5(C)[C@@H](c6ccc(=O)oc6)CC[C@]45O)[C@@]3(C)CC2)[C@H](O)[C@H](O)[C@H]1O | 221 |  |  |  |  |  |  | 
CCC(CC)C(=O)OCCOCCOCCOC(=O)C(CC)CC |  | readily biodegradable |  |  |  |  |  | 
CNCCc1c[nH]c2ccccc12 | 88 |  |  |  |  |  |  | 
NS(=O)(=O)c1ccc(SCCO)cc1 | 112 |  |  |  |  |  |  | 
Clc1cc(Cl)c2c(Cl)cccc2c1Cl |  |  | 8.58 |  |  |  |  | 
CC1CCCCC1C (stereo not drawn) |  |  |  | 126 | 1.26 | 1.2 |  | 
c1ccc(OB(Oc2ccccc2)Oc2ccccc2)cc1 | 99.5 |  |  |  |  |  |  | 
CCN(CC)c1cccc(C)c1 |  |  |  | 232 |  |  |  | 
Cc1cc(C)cc(O)c1 | 63.6 |  |  | 222 |  | -1.39 | -6.21 | 2.83
CC(C)(c1ccccc1)c1ccc(O)cc1 | 75 | not readily biodegradable |  | 335 |  | -4.23 |  | 
CCCN(CCC)N=O |  | not readily biodegradable |  | 206 |  |  |  | 
CC1(C)[C@H](C=C(Cl)Cl)[C@H]1C(=O)OCc1c(F)c(F)cc(F)c1F | 32 |  |  |  |  | -5.52 |  | 
CC(C)c1ccc(Br)cc1 | -22.5 |  |  | 219 |  |  |  | 
O=P(Oc1ccccc1)(Oc1ccccc1)Oc1ccccc1 | 50.5 | readily biodegradable |  |  |  | -5.2 |  | 
O=C(O)[C@H]1CC[C@H](C(=O)O)CC1 | 312 |  |  |  |  |  |  | 
CCOCCOC(=O)c1ccccc1C(=O)OCCOCC | 34 |  |  | 345 |  |  |  | 
COc1cc(CCO)ccc1O | 41 |  |  |  |  |  |  | 
CC(C)SC(C)C | -78.1 |  |  | 120 |  | 1.28 | -2.48 | 
Cc1ccccc1-c1ccccc1 | -0.2 |  |  | 256 |  |  |  | 
CN(C)CCCN1c2ccccc2S(=O)c2ccc(Cl)cc21 (stereo not drawn) | 115 |  |  |  |  |  |  | 

Structure (SMILES) | melting point [°C] | ready biodegradability | log10 Koa | boiling point [°C] | log10 biodegradation half-life (days) | log10 vapour pressure (mmHg) | log10 Henry constant (atm·m³/mol) | log10 Koc (L/kg)
CCOC(OCC)C(Cl)Cl |  |  |  | 184 |  |  |  | 
CSc1ccc(O)cc1C |  | not readily biodegradable |  |  |  |  |  | 
CNc1cccc(C)c1 |  | not readily biodegradable |  | 206 |  |  |  | 
Nc1cccc(C(=O)c2cccc(N)c2)c1 | 174 |  |  |  |  |  |  | 
O=C(O)c1ccc([N+](=O)[O-])cc1[N+](=O)[O-] | 182 |  |  |  |  |  |  | 
OCC1O[C@@H](Oc2ccccc2)[C@H](O)[C@@H](O)[C@H]1O (stereo partly drawn) | 166 |  |  |  |  |  |  | 
CC(C)CCCC(C)(C)O |  |  |  | 173 |  |  |  | 
C=COC(=O)CCl |  | readily biodegradable |  |  |  |  |  | 
CCCC(O)CC(C)C (stereo not drawn) | -81 |  |  | 164 |  |  |  | 
C=C(C)C1CCC(C)(O)CC1 (stereo not drawn) | 32.5 |  |  | 210 |  |  |  | 
Cc1cc(C)cc(C(C)(C)C)c1 | -18 |  |  | 207 |  |  |  | 
COC(=O)C(C)(C)O |  |  |  | 137 |  |  |  | 
CC(=O)OCC#N |  |  |  | 200 |  |  |  | 
Oc1ccccc1-c1nnco1 | 112 |  |  |  |  |  |  | 
CCCCCCCCCCC(=O)O | 28.6 | readily biodegradable |  | 280 |  | -2.42 |  | 
OC1CCC(Cl)CC1 (stereo not drawn) | 82.5 |  |  |  |  |  |  | 
O=C(O)C(F)(F)C(F)(F)C(=O)O | 119 |  |  |  |  |  |  | 
CCCc1ccccc1O | 7 |  |  | 220 |  | -1.05 |  | 
Nc1ccc(S(=O)(=O)c2ccc([N+](=O)[O-])cc2)cc1 | 170 |  |  |  |  |  |  | 
OCc1cccc(O)c1 | 73 |  |  |  |  |  |  | 

Structure (SMILES) | melting point [°C] | ready biodegradability | log10 Koa | boiling point [°C] | log10 biodegradation half-life (days) | log10 vapour pressure (mmHg) | log10 Henry constant (atm·m³/mol) | log10 Koc (L/kg)
CCCCCCS | -81 |  |  | 151 |  | 0.624 |  | 
CNCc1ccccc1 |  |  |  | 180 |  |  |  | 
NC(=O)NO | 141 |  |  |  |  |  |  | 
C[C@]12C[C@H](O)[C@H]3[C@@H](CCC4=CC(=O)CC[C@@]43C)[C@@H]1CC[C@@H]2C(=O)CO | 181 |  |  |  |  |  |  | 
CC(C)(c1ccc(OCCO)cc1)c1ccc(OCCO)cc1 |  | not readily biodegradable |  |  |  |  |  | 
CCN(C#N)CC | -80.6 |  |  | 188 |  |  |  | 
CCCCCCC(C)CC (stereo not drawn) | -84.8 |  |  | 168 |  |  |  | 
CCOC(=O)C(C(C)=O)C(C)C (stereo not drawn) |  |  |  | 201 |  |  |  | 
CC(=O)CC(C)C | -84 | readily biodegradable |  | 116 |  | 1.3 |  | 
CN(C(=O)COc1nc2ccccc2s1)c1ccccc1 | 135 |  |  |  |  | -8.32 |  | 
O=C1c2ccccc2C(=O)c2c(NCCO)ccc(NCCO)c21 | 248 |  |  |  |  |  |  | 
CC1=CCC(C(C)C)=CC1 | -10 | readily biodegradable |  | 183 |  | 0.0362 | -1.59 | 
CC(=O)Oc1cc(C)ccc1C |  |  |  | 237 |  |  |  | 
C=CC1CCCCC1 |  |  |  | 128 |  |  |  | 
CCN(CC)C(=O)CSc1ccc(Cl)nn1 | 97 | not readily biodegradable |  |  |  |  |  | 
OC[C@H]1O[C@@H](n2cnc3c2N=CNC[C@H]3O)C[C@@H]1O | 220 |  |  |  |  |  |  | 
ClC(Cl)[Si](Cl)(Cl)Cl |  |  |  | 145 |  |  |  | 
ClCc1ccc(Cl)cc1Cl | -2.6 |  |  | 248 |  | -1.49 |  | 
CCN1CCNC(=O)C1=O | 108 |  |  |  |  |  |  | 
O=C(Cl)CCCCl |  |  |  | 174 |  |  |  | 
